The source of these data is patent publication US20160081912A1, “COMPOSITIONS FOR IMPROVING THE HAIR, SKIN, AND NAILS” (FYBRANDS CORP., priority 2013, published 2016).

SMILES strings stand for the structures.

This data set is described as follows: Solubility of cycloastragalus in water, acetone and oil carriers. In kind it is physicochemical. The text has this:
In certain embodiments, the disclosure provides compositions to deliver the active ingredient to the root bulb of the hair follicle. Cycloastragalus is not soluble in water. Creating a cream formulation could possibly lead to clogging of pores at the site of the hair follicle, which could negatively affect restoration of the follicle. In certain aspects, the present disclosure relates to delivery of cycloastragalus using oil-based formulations. Oil is absorbed into the stratum corneum and deeper layers of the skin where the root bulb cells are located.
Initial attempts at determining an appropriate oil carrier were done using either or in combination together C10-30 Cholesterol and Lanosterol esters.
Further attempts were then made in to dissolve the cycloastragalus in oil carrier.
Cycloastragalus is soluble in acetone. We evaluated the possibility that cycloastragalus could be first dissolved in acetone and then put into solution with an oil carrier. Since acetone evaporates to completion out of any open system, it could be removed leaving the cycloastragalus in solution. One should keep in mind that acetone is incredibly flammable, and methods for removing acetone should be chosen carefully.

As for `CC(C)(O)[C@@H]1CC[C@](C)([C@H]2[C@@H](O)C[C@@]3(C)[C@@H]4C[C@H](O)[C@H]5C(C)(C)[C@@H](O)CC[C@@]56C[C@@]46CC[C@]23C)O1` [Cycloastragalus, cycloastragenol], the solubility in water entry is “not soluble”. For the same compound, the solubility in acetone entry (acetone) was “soluble”. Further, the “dissolving in oil carrier” value (oil carrier, direct dissolution without acetone) is reported as “limited success”. In addition, the solubility in water entry (listed as cycloastragalus) is recorded as “very limited results”.
